We go through ten compounds from patent US20250144067A1, “PERSONALIZED STARVATION THERAPY FOR CANCER” (Faeth Therapeutics, Inc., priority 2021, published 2025).

The test system of assay [1] is NCI-H292 lung cancer cells. Kind of assay: FDA drug screening, complete media vs cholesterol-free media with simvastatin (TABLE 2). The class given is cell-based, human.
The test system of assay [2] is NCI-H292 lung cancer cells. Kind of assay: FDA drug screening, complete media vs cholesterol-free media without statin (TABLE 1). The class given is cell-based, human.
Setting [3] is: NCI-H292 cells, cholesterol-free media without statin, FDA drug library screen.
[4] abbreviates: NCI-H292 cells, complete media, FDA drug library screen.
Where [5] appears, read: complete vs cholesterol-free media, >0 enhanced anti-cancer activity, about 0 neutral, <0 antagonist.
Where [6] appears, read: NCI-H292 cells, drug in cholesterol-free media with simvastatin 0.04 μM.
[7] abbreviates: NCI-H292 cells, drug in complete media.
Where [8] appears, read: complete media vs cholesterol-free media + simvastatin (0.04 μM), >0 enhanced anti-cancer activity, about 0 neutral, <0 antagonist.
Where [9] appears, read: NCI-H292 cells, FDA drug library screen, cholesterol-free media with simvastatin 0.04 μM.
The mark [10] stands for this setting: NCI-H292 cells, FDA drug library screen, complete media.
Where [11] appears, read: complete media minus cholesterol-free media + simvastatin, >0 enhanced anti-cancer activity, about 0 neutral, <0 antagonist.
The mark [12] stands for this setting: Complete minus Cholesterol-free, >0 enhanced anti-cancer activity, about 0 neutral, <0 antagonist.

Counter-ions that a name gives are not always drawn. Like-named read-outs stand apart in the source and are kept apart here.

For the compound `CCCN(CCC)C(=O)C(CCC(=O)O)NC(=O)c1ccccc1` (centres unmarked) [Proglumide], in assay [1] (NCI-H292 cells, cholesterol-free media with simvastatin 0.04 μM, FDA drug library screen (TABLE 2)), the “Cholesterol-free media + simvastatin (0.04 μM)” value was 0.8053. The “Complete Media” value in assay [1] (NCI-H292 cells, complete media, FDA drug library screen (TABLE 2)) was determined as 0.7842. Further, the Difference in assay [1] (complete media minus cholesterol-free media + simvastatin (0.04 μM), >0 enhanced anti-cancer activity, about 0 neutral, <0 antagonist) is reported as −0.02; in assay [2] (setting [5]), 0.69. In addition, in assay [2] (setting [3]), the Cholesterol-free was 0.7154. In assay [2] (setting [4]), this compound showed a Complete of 1.407.
For the compound `NC[C@H]1CC[C@H](C(=O)O)CC1` [Tranexamic acid], the “Cholesterol-free media + simvastatin (0.04 μM)” value in assay [1] (setting [6]) was 1.894. The “Complete Media” value in assay [1] (setting [7]) is 1.678. Moreover, the Difference in assay [1] (setting [8]) is −0.22; in assay [2] (Complete minus Cholesterol-free, greater than 0 enhanced anti-cancer activity, about 0 neutral, below 0 antagonists), −0.77. In addition, the Cholesterol-free in assay [2] (NCI-H292 cells in cholesterol-free media without statin) was 2.288. The Complete in assay [2] (NCI-H292 cells in complete media) is 1.522.
For the compound `CO[C@H]1/C=C/O[C@@]2(C)Oc3c(C)c(O)c4c(O)c(c(/C=N/N5CCN(C6CCCC6)CC5)c(O)c4c3C2=O)NC(=O)/C(C)=C\C=C\[C@H](C)[C@H](O)[C@@H](C)[C@@H](O)[C@@H](C)[C@H](OC(C)=O)[C@@H]1C` [Rifapentine], the “Cholesterol-free media + simvastatin (0.04 μM)” value in assay [1] (setting [9]) was found to be 1.582. Also, in assay [1] (setting [10]), the “Complete Media” value is on record as 1.938. The Difference in assay [1] (setting [11]) is reported as 0.36; in assay [2] (setting [12]), −0.06. Moreover, the Cholesterol-free in assay [2] (setting [3]) was determined as 1.056. The compound also returned a Complete in assay [2] (setting [4]) of 0.9967.
For the compound `CN1CCN2c3ccccc3Cc3ccccc3C2C1` (centres unmarked) [Mianserin (hydrochloride)], the “Cholesterol-free media + simvastatin (0.04 μM)” value in assay [1] (setting [9]) was found to be 1.121. For the same compound, in assay [1] (setting [10]), the “Complete Media” value amounted to 1.021. The Difference in assay [1] (setting [8]) is −0.10; in assay [2] (setting [5]), 0.13. In addition, in assay [2] (setting [3]), the Cholesterol-free was found to be 1.049.
In the case of `CCN(CC)c1ccc(C(=C2C=CC(=[N+](CC)CC)C=C2)c2cc(S(=O)(=O)[O-])ccc2S(=O)(=O)[O-])cc1.[Na+]` [Isosulfan blue], in assay [1] (NCI-H292 cells, cholesterol-free media with simvastatin 0.04 μM, […]), the “Cholesterol-free media + simvastatin (0.04 μM)” value is listed as 1.148. Also, in assay [1] (NCI-H292 cells, complete media, […]), the “Complete Media” value is listed as 1.247. The Difference in assay [1] (complete media minus cholesterol-free media + simvastatin, […]) is given as 0.10; in assay [2] (Complete minus Cholesterol-free, […]) it was −0.07. This compound came in with a Cholesterol-free in assay [2] (setting [3]) of 1.156. Further, the Complete in assay [2] (setting [4]) amounted to 1.087.
As for `N#Cc1ccc(C2CCCc3cncn32)cc1` (centres unmarked) [Fadrozole], in assay [1], the “Cholesterol-free media + simvastatin (0.04 μM)” value stood at 1.426, the “Complete Media” value is reported as 1.038 and the Difference was −0.39. In addition, in assay [2], the Cholesterol-free came out at 0.5349, the Complete was 1.016 and the Difference was found to be 0.48.
`NC(=O)N1c2ccccc2C[C@H](O)c2ccccc21` [Eslicarbazepine]: the “Cholesterol-free media + simvastatin (0.04 μM)” value in assay [1] (setting [6]) worked out at 1.137. Moreover, the “Complete Media” value in assay [1] (setting [7]) was found to be 0.9164. Besides, the Difference is −0.22 in assay [1] (setting [8]) and −0.02 in assay [2] (setting [12]). Besides, the Cholesterol-free in assay [2] (setting [3]) worked out at 0.8833. For the same compound, the Complete in assay [2] (setting [4]) is reported as 0.8587.
On to Alimemazine hemitartrate, for which, in assay [1] (setting [9]), the “Cholesterol-free media + simvastatin (0.04 μM)” value turned out to be 0.9971. Moreover, in assay [1] (setting [10]), the “Complete Media” value was found to be 1.335. The values for the Difference in assay [1] (setting [11]) and in assay [2] (setting [12]) were 0.34 and 0.05, respectively. Moreover, the Cholesterol-free in assay [2] (setting [3]) was 1.186. In addition, the Complete in assay [2] (setting [4]) is 1.239.
In the case of `CCOc1ccc2nc(S(N)(=O)=O)sc2c1` [Ethoxzolamide], the “Cholesterol-free media + simvastatin (0.04 μM)” value in assay [1] (setting [9]) is reported as 1.137. For the same compound, the “Complete Media” value in assay [1] (setting [10]) is reported as 1.016. Further, the Difference is listed as −0.12 in assay [1] (setting [8]) and −0.34 in assay [2] (complete vs cholesterol-free media, greater than 0 enhanced anti-cancer activity, about 0 neutral, below 0 antagonists). This compound returned a Cholesterol-free in assay [2] (NCI-H292 cells, cholesterol-free media without statin) of 1.33. This compound also displayed a Complete in assay [2] (NCI-H292 cells, complete media) of 0.9909.
Take `C[C@@H](OC[C@@]1(c2ccccc2)CC[C@]2(CCC(=O)N2)CN1)c1cc(C(F)(F)F)cc(C(F)(F)F)c1` [Rolapitant]: the “Cholesterol-free media + simvastatin (0.04 μM)” value in assay [1] (setting [9]) was determined as 1.001. Besides, the “Complete Media” value in assay [1] (setting [10]) was determined as 0.9304. For the same compound, the figures for the Difference in assay [1] (setting [8]) and in assay [2] (setting [12]) were −0.07 and −0.04, respectively. Further, in assay [2] (setting [3]), the Cholesterol-free was 0.9892. The compound further registered a Complete in assay [2] (setting [4]) of 0.9523.
